# Patent US20260055152A1, “INTRACELLULAR CX3CL1 DOMAIN PEPTIDES AND USES THEREOF” (University of Connecticut, priority 2022, published 2026)
# Test system: Akt
# Assay: Akt inhibition assay in cultured N2A cells
# Type: cell-based, mouse
structure (smiles),measurement,setting,value
NC1(c2ccc(-c3nc4ccn5c(=O)[nH]nc5c4cc3-c3ccccc3)cc2)CCC1 [MK2206],phosphorylation of GSK3β and Foxo3,"N2A cells treated with 2 μM Tet34 or controls 24 hrs, then 2 μM MK2206 3hrs",diminish
same,Tet34 induced effects on Foxo3 phosphorylation,N2A cultures with Tet-CX3CL1-ICD peptides in presence of MK2206,abolished
